Here are results for 30 compounds from patent EP2548863A1, “New CRTh2 antagonists” (Almirall, S.A., priority 2011, dated 2013).

pIC50: −log10 of the molar value.

In this experiment the target is T1, CRTh2 receptor (Homo sapiens, UniProt Q9Y5Y4).
T1 construct: expressed in transfected cells; host or cells: CHO.K1 cells (membranes)
T1 sequence (Q9Y5Y4 1-395): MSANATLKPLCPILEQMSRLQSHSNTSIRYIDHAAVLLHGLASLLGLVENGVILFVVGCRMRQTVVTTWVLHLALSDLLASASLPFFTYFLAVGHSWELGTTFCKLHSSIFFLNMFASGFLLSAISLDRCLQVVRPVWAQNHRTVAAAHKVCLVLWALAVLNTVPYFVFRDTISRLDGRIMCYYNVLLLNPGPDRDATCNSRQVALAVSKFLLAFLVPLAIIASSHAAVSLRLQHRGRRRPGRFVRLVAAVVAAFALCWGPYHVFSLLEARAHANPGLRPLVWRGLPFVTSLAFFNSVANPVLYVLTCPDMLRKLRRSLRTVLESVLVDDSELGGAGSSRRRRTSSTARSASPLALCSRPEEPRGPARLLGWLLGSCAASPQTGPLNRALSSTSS
Briefly: CRTh2 GTPγS antagonism binding assay. It is filed as biochemical. The following applies: membranes from CHO.K1 cells stably overexpressing the CRTh2 receptor; [35S]-GTPγS 0.1 nM; PGD2 at 50 nM (EC80); IC50 per method; read-out: GTPγ Binding. The method, then:
CRTh2 GTPγS antagonism bending assay
The assay is performed using membranes obtained from CHO.K1 cells stably overexpressing the CRTh2 receptor and [^35S]-GTPγS as radioligand. Assay is performed pre-incubating 4-8 µg of membranes per well with the compound to be tested for 1h, followed by incubation with PGD2 at 50 nM (EC80), 0.1 nM [^35S]-GTPγS in incubation buffer (20 mM Herpes, 10 mM MgCl2, 100 mM NaCl, 10 µM GDP, 10 µg/ml Saponine and 0.2% BSA) for 2 h at room temperature. The reaction is terminated by filtering in GF/C plates pre-treated with 20 mM HEPES, 10 mM MgCl2, 100 mM NaCl and washing 6 times with wash buffer (20 mM NaH2PO4, 20 mM Na2HPO4). After washing, plates are dried and scintillation buffer Optiphase added. The radioactivity retained in the filter is counted using a Microbeta liquid scintillation counter. Compound IC50 are determined using Excel XL-fit for calculations.
Background: Binding of GTPγS marks nucleotide exchange on a G protein.
Turning to `CCN(Cc1cc(C(F)(F)F)ccc1-c1nn(CC(=O)O)c2ccccc12)C(=O)C1CC1` [Example 1, {3-[2-{[(Cyclopropylcarbonyl)(ethyl)amino]methyl]-4-(trifluoromethyl)phenyl]-1H-indazol-1-yl}acetic acid], the pIC50 is 7.74.
The figure for `CCN(Cc1cc(C(F)(F)F)ccc1-c1nn(CC(=O)O)c2cccc(Cl)c12)C(=O)C1CC1` [Example 2, {4-Chloro-3-[2-{[(cyccopropylcarbonyl)(ethyl)amino]methyl}-4-(trifluoromethyl)phenyl]-1H-indazol-1-yl}acetic acid] is 8.22.
The figure for `CCN(Cc1cc(C(F)(F)F)ccc1-c1nn(CC(=O)O)c2ccc(F)cc12)C(=O)C1CC1` [Example 3, {3-[2-{[(Cyclopropylcarbonyl)(ethyl)amino]methyl}-4-(trifluoromethyl)phenyl]-5-fluoro-1H-indazol-1-yl}acetic acid] is 7.82.
The figure for `CCN(Cc1cc(F)ccc1-c1nn(CC(=O)O)c2cccc(Cl)c12)C(=O)C1CC1` [Example 4, [4-Chloro-3-(2-{[(cyclopropylcarbonyl)(ethyl)amino]methyl}-4-fluorophenyl)-1H-indazol-1-yl]acetic acid] is 8.05.
In the case of `CCN(Cc1cc(C(F)(F)F)ccc1-c1nn(CC(=O)O)c2ccc(Cl)cc12)C(=O)C1CC1` [Example 5], the pIC50 was 7.80.
As for `CCN(Cc1cc(F)ccc1-c1nn(CC(=O)O)c2ccc(C(F)(F)F)cc12)C(=O)C1CC1` [Example 8, [3-(2-{[(Cyclopropylcarbonyl)(ethyl)amino]methyl}-4-fluorophenyl)-5-(trifluoromethyl)-1H-indazol-1-yl]acetic acid], the figure is 8.15.
The figure for `CCN(Cc1cc(C(F)(F)F)ccc1-c1nn(C(C)C(=O)O)c2cccc(Cl)c12)C(=O)C1CC1` (stereo not drawn) [Example 9, 2-{4-Chloro-3-[2-{[(cyclopropylcarbonyl)(ethyl)amino]methyl}-4-(trifluoromethyl)phenyl]-1H-indazol-1-yl}propanoic acid] is 7.89; for `CCN(Cc1cc(F)ccc1-c1nn(CC(=O)O)c2ccc(Cl)cc12)C(=O)C1CC1` [Example 11, [5-Chloro-3-(2-{[(cyclopropylcarbonyl)(ethyl)amino]methyl}-4-fluorophenyl)-1H-indazol-1-yl]acetic acid] it is 8.22.
The figure for `CCN(Cc1cc(C(F)(F)F)ccc1-c1nn(CC(=O)O)c2cccc(F)c12)C(=O)C1CC1` [Example 14, {3-[2-{[(Cyclopropylcarbonyl)(ethyl)amino]methyl}-4-(trifluoromethyl)phenyl]-4-fluoro-1H-indazol-1-yl}acetic acid] is 8.40.
With `CCN(Cc1cc(C(F)(F)F)ccc1-c1nn(CC(=O)O)c2ccc(C)cc12)C(=O)C1CC1` [Example 15, {3-[2-{[(Cyclopropylcarbonyl)(ethyl)amino]methyl}-4-(trifluoromethyl)phenyl]-5-methyl-1H-indazol-1-yl}acetic acid], the pIC50 is 8.10.
As for `CCN(Cc1cc(C(F)(F)F)ccc1-c1nn(CC(=O)O)c2cccc(C)c12)C(=O)C1CC1` [Example 16, {3-[2-{[(Cyclopropylcarbonyl)(ethyl)ammo]methyl}-4-(trifluoromethyl)phenyl]-4-methyl-1H-indazol-1-yl}acetic acid], the figure is 7.77; as for `CCN(Cc1cc(C(F)(F)F)ccc1-c1nn(CC(=O)O)c2ccc(F)c(Cl)c12)C(=O)C1CC1` [Example 17, {4-Chloro-3-[2-{[(cydopropylcarbonyl)(ethyl)amino]methyl}-4-(trifluoromethyl)phenyl]-5-fluoro-1H-indazol-1-yl}acetic acid], 8.00.
As for `CCN(Cc1cc(F)ccc1-c1nn(CC(=O)O)c2ccc(Cl)cc12)C(=O)OC(C)(C)C` [Example 18, [3-(2-{[(tert-Butoxycarbonyl)(ethyl)amino]methyl}-4-fluorophenyl)-5-chloro-1H-indazol-1-yl]acetic acid], the figure is 7.89; as for `CCN(Cc1cc(F)ccc1-c1nn(CC(=O)O)c2ccc(Cl)cc12)C(=O)C1CCC1` [Example 19, [5-Chloro-3-(2-{[(cyclobutylcarbonyl)(ethyl)amino]methyl}-4-fluorophenyl)-1H-indazol-1-yl]acetic acid], 8.15.
The figure for `CCN(Cc1cc(F)ccc1-c1nn(CC(=O)O)c2ccc(Cl)cc12)C(C)=O` [Example 22] is 8.00.
For the compound `CCN(Cc1cc(C(F)(F)F)ccc1-c1nn(CC(=O)O)c2cccc(Cl)c12)C(=O)NCc1ccccc1` [Example 23, (3-[2-{[[(Benzylamino)carbonyl](ethyl)amino]methyl}-4-(trifluoromethyl)phenyl]-4-chloro-1H-indazol-1-yl}acetic acid], the pIC50 is 8.10.
The figure for `CCN(Cc1ccccc1-c1nn(CC(=O)O)c2ccc(Cl)cc12)C(=O)C1CC1` [Example 24] is 8.05.
As for `CCN(Cc1cc(C(F)(F)F)ccc1-c1nn(CC(=O)O)c2ccc(Cl)c(F)c12)C(=O)C1CC1` [Example 27], the figure is 7.85; as for `CCN(Cc1cc(C(F)(F)F)ccc1-n1cc(CC(=O)O)c2ccc(F)cc21)C(=O)C1CC1` [Example 30, {1-[2-[[(Cyclopropylcarbonyl)(ethyl)amino]methyl}-4-(trifluoromethyl)phenyl]-6-fluoro-1H-indol-3-yl}acetic acid], 7.74; as for `CCN(Cc1cc(C(F)(F)F)ccc1-c1cn(CC(=O)O)c2ccccc12)C(=O)C1CC1` [Example 31, (3-[2-[[(Cyclopropylcarbonyl)(ethyl)amino]methyl)-4-(trifluoromethyl)phenyl]-1H-indol-1-yl}acetic acid], 7.72.
The figure for `CCN(Cc1cc(C(F)(F)F)ccc1-c1cn(CC(=O)O)c2ccc(F)cc12)C(=O)C1CC1` [Example 33] is 7.74; for `CCN(Cc1cc(F)ccc1-c1cn(CC(=O)O)c2ccccc12)C(=O)C1CC1` [Example 37, [3-(2-[[(Cyclopropylcarbonyl)(ethyl)amino]methyl}-4-fluorophenyl)-1H-indol-1-yl]acetic acid] it is 7.96.
`CCN(Cc1cc(F)ccc1-c1cn(CC(=O)O)c2ccc(C(F)(F)F)cc12)C(=O)C1CC1` [Example 39, [3-(2-[[(Cyclopropylcarbonyl)(ethyl)amino]methyl}-4-fluorophenyl)-5-(trifluoromethyl)-1H-indol-1-yl]acetic acid]: the pIC50 is 7.89.
The figure for `CCN(Cc1cc(C(F)(F)F)ccc1-c1cn(CC(=O)O)c2cccc(F)c12)C(=O)C1CC1` [Example 40, (3-[2-[[(Cyclopropylcarbonyl)(ethyl)amino]methyl}-4-(trifluoromethyl)phenyl]-4-fluoro-1H-indol-1-yl}acetic acid] is 8.52; for `CCN(Cc1cc(F)ccc1-c1cn(CC(=O)O)c2ccc(F)cc12)C(=O)C1CC1` [Example 42, [3-(2-([(Cyclopropylcarbonyl)(ethyl)amino]methyl}-4-fluorophenyl)-5-fluoro-1H-indol-1-yl]acetic acid] it is 8.22; for `CCN(Cc1cc(C(F)(F)F)ccc1-c1cn(CC(=O)O)c2ccc(F)cc12)C(=O)NCc1ccccc1` [Example 43, {3-[2-{[[(Benzylamino)carbonyl](ethyl)aaino]methyl]-4-(trifluoromethyl)phenyl]-5-fluoro-1H-indol-1-yl}acetic acid] it is 7.80.
Turning to `Cc1nnc(C2CC2)n1Cc1cc(C(F)(F)F)ccc1-c1cn(CC(=O)O)c2ccc(F)cc12` [Example 46, (3-[2-[(3-Cyclopropyl-5-methyl-4H-1,2,4-triazol-4-yl)methyl]-4-(trifluoromethyl)phenyl]-5-fluoro-1H-indol-1-yl}acetic acid], the pIC50 was 8.05.
Take `CCN(Cc1cc(C(F)(F)F)ccc1-c1cn(CC(=O)O)c2ccc(F)c(F)c12)C(=O)C1CC1` [Example 50, {3-[2-{[(Cyclopropylcarbonyl)(ethyl)amino]methyl)-4-(trifluoromethyl)phenyl]-4,5-difluoro-1H-indol-1-yl}acetic acid]: the pIC50 was 7.80.
Take `CCN(Cc1cc(F)ccc1-c1cn(CC(=O)O)c2cccc(F)c12)C(=O)C1CC1` [Example 52, [3-(2-{[(Cyclopropylcarbonyl)(ethyl)amino]methyl}-4-fluorophenyl)-4-fluoro-1H-indol-1-yl]acetic acid]: the pIC50 was 8.15.
The figure for `CCN(Cc1ccccc1-c1cn(CC(=O)O)c2ccc(F)cc12)C(=O)C1CC1` [Example 54, [3-(2-([(Cyclopropylcarbonyl)(ethyl)amino]methyl)phenyl)-5-fluoro-1H-indol-1-yl]acetic acid] is 8.40.
